Test results: paper PMC6736837, “^18F-labelled triazolyl-linked argininamides targeting the neuropeptide Y Y1R for PET imaging of mammary carcinoma” (Scientific Reports, 2019)
“Also recorded” adds a separate entry of the source.

Key:
[1] = target: Y1R; design: method as in PMID 28337321; conditions: displacement of [^3H]UR-MK114, SK-N-MC neuroblastoma cells; cited from earlier work
[2] = Binding to human plasma proteins by gel filtration; format: in vitro ADME; conditions: 37 °C, read-out: Free fraction in plasma
Procedure: The binding of ^18F-labelled compounds to plasma proteins was determined using gel filtration columns(illustra™ MicroSpin™ G-50 Columns, GE Healthcare Life Sciences, Freiburg). An aliquot of the radiotracer (approx. 100 kBq) was added to 200 µL of saline, and 100 µL of human plasma, respectively. Both samples were incubated at 37 °C for 10 min. MicroSpin™ columns were prepared according to the user instruction. Then 25 µL of the incubated radiotracer were given onto the columns and the devices were centrifuged (2000 × g, 2 min). Eluate and solid phase were analysed in the γ-counter (Wallac Wizard). The percentage of unbound radioligand was calculated as %free=cpmsolidphase/cpmsolidphase+cpmeluate . The sample in saline was used as control.

[3] = Biodistribution in healthy mice; format: in vivo, mouse; conditions: at 30 and 90 min p.i.
Procedure: Biodistribution studies were conducted using female NMRI outbred mice (HsdWin:NMRI) purchased from Envigo (Horst, The Netherlands). Mice were kept in groups of four to five animals in individually ventilated cages in a twelve hours dark/light cycle with unlimited access to water and standard chow. At the age of eight to nine weeks six animals per radiotracer were injected with 2–4 MBq of the respective radiotracer under isoflurane anesthesia. Mice were sacrificed by cervical dislocation 30 or 90 min p.i. of the radiotracer. Blood as well as the organs/tissues lung, liver, kidneys, heart, spleen, brain, muscle, intestines, gall bladder and bones were harvested and analysed in the γ-counter. Samples were weighed and radioactivity in different tissues was calculated as percentage of the total injected dose per gram tissue (%ID/g).

[4] = Octanol-water distribution coefficient logD7.4, shake flask method; format: physicochemical; conditions: 1-octanol/PBS, pH 7.4, PBS/1-octanol, read-out: logD7.4 experimental
Procedure: The lipophilicity of the radioligands was determined by the distribution coefficient logD7.4. The respective radioligand (10 µL, about 25 kBq) was added to a mixture of PBS (500 µL) and 1-octanol (500 µL) and the emulsion was vortexed for 1 min. After centrifugation 3 × 100 µL were taken of each layer and analysed by a γ-counter. The partition coefficient was calculated as logD7.4=log(cpmoctanol/cpmPBS) . Data were expressed as mean values ± SD from three experiments.

[5] = Radiotracer stability in human serum by radio-HPLC; format: in vitro ADME; conditions: 37 °C
Procedure: The stability of ^18F-labelled compounds was determined in human serum. An aliquot of the radiotracer (5–10 MBq) was added to 200 µL human serum and incubated at 37 °C. Aliquots of 15 µL were taken after 5, 10, 15, 30, 45, 60, 120 and 180 min and quenched in 100 µL of 10% aqueous TFA. The samples were centrifuged (20000 × g, 2 min), and the supernatants were analysed by radio-HPLC (Chromolith RP-18e, 100 × 4.6 mm, 4 mL/min, 0–1 min 25% CH3CN (0.1% TFA) in water (0.1% TFA), 1–6 min 25–60%, 6–7 min 60–100%, 7–8 min 100%).

[6] = Radioactive metabolites of Y1R radioligands in mouse blood; format: in vivo
Procedure: Nude mice were anesthetised with isoflurane and injected with the respective radiotracer (3–25 MBq) into the tail vein. After 5 min, animals were sacrificed by cervical dislocation and approx. 100 µL blood were collected from the abdomen and transferred into Li-heparinised Microvettes® (100 LH, Sarstedt). The same volume of aqueous urea (0.8 g/mL) was added and the Microvette® was centrifuged (2000 × g, 5 min). The supernatant was transferred to a 1.5 mL reaction vial, mixed with the same volume of 10% aqueous TFA and centrifuged (20000 × g, 5 min). This step was repeated once. A sample of the resulting supernatant (100 µL) was analysed by radio-HPLC using two methods (Chromolith RP-18e, 100 × 4.6 mm, 4 mL/min, 0–1 min 25% CH3CN (0.1%TFA) in water (0.1%TFA), 1–6 min 25–60%, 6–7 min 60–100%, 7–8 min 100%; Kromasil 100 C8 5 µm, 250 × 4.6 mm, 1.5 mL/min, 1–25 min 20–53.3% CH3CN (0.1% TFA) in water (0.1% TFA), 25–27 min 53.3–80%, 27–28 min 80–100%, 28–32 min 100%).

[7] = tested on: MCF-7-Y1 tumour slices; test: In-vitro autoradiography on MCF-7-Y1 tumour xenograft slices; format: binding, human; conditions: blocking with 1 µM and 10 µM BIBP3226
Procedure: MCF-7-Y1 tumour bearing mice were sacrificed by cervical dislocation under deep isoflurane anesthesia and tumours were excised and subsequently frozen in a hexane/dry ice bath (−70 °C). MCF-7-Y1 tumour slices (14 µm) were prepared on a cryostat microtome HM 500 O (Microm, Walldorf) and thaw-mounted on Histobond® adhesive glass slides (Marienfeld, Lauda-Königshofen).
For autoradiography studies slides were thawed and pre-incubated for 15 min in incubation buffer (50 mM TRIS HCl, pH 7.4, containing 120 mM NaCl, 5 mM MgCl2,) at room temperature. Thereafter, 800 µL of incubation buffer, containing 0.1 MBq of the respective radiotracer were pipetted on the slide and incubated at room temperature for 60 min. For displacement studies BIBP3226 (1 µM or 10 µM) was added to the incubation buffer before pipetting on the slides. Afterwards slides were washed by placing in ice cold incubation buffer (3 × 2 min) followed by short dipping in ice cold distilled water. Slides were carefully dried in a stream of warm air and finally placed on an autoradiography film (Fuji Imaging Plate BAS-IP SR 2025 E, Fujifilm, Düsseldorf) overnight prior to readout (25 µm resolution) on the autoradiograph (HD-CR-35 Bio, Raytest, Straubenhardt) and analysis with the software AIDA (Raytest). Additional sections were stained with hematoxylin and eosin (H&E) for comparison with the autoradiography images.

[8] = tested on: MCF-7-Y1 tumours; test: Small animal PET in MCF-7-Y1 xenografted nude mice; format: in vivo, mouse; conditions: 45–60 min p.i., blocking by co-injection of BIBP3226 1 mg/kg
Procedure: For the NPY Y1R xenograft model, female NMRI nude mice (HsdCpb:NMRI-Foxn1^nu) were purchased from Envigo (Horst, The Netherlands) at the age of three weeks. Mice were kept in groups of four to five animals in individually ventilated cages in a twelve hours dark/light cycle with unlimited access to water and standard chow. At the age of nine to ten weeks one 17β-estradiol pellet per animal (0.72 mg per pellet, 3 mm diameter) with a 60-day release time (Innovative Research of America, Sarasota, FL, USA) was subcutaneously implanted on the back under isoflurane anesthesia. After three days, approximately 10^6 MCF-7-Y1 tumour cells (in 50 µL PBS) were mixed with Matrigel (50 µL, BD Biosciences, Heidelberg) and then injected subcutaneously at the back. Tumour diameters and weight of the animals were recorded five times a week. Imaging studies were performed four weeks after inoculation of the cells.
Small animal PET scans were performed on an Inveon™ microPET scanner (Siemens Healthcare, Erlangen) under isoflurane anesthesia (3%). Tumour bearing mice (26–35 g, n = 2–3 for each radioligand) were intravenously injected into the tail vein with the respective radiotracer (1.5–4.2 MBq in about 100 µL of saline) under isoflurane anesthesia (3–4%). Static images were acquired for 15 min starting 45 min p.i. of the radiotracer. For displacement studies, the same mice were co-injected with the radiotracer ([^18F]12 and [^18F]13 only) and BIBP3226 (1 mg/kg). Images were corrected for decay and attenuation and MAP (iterative maximum a posteriori) images were reconstructed using the built-in software of the PET scanner. Evaluation of the MAP images was conducted using the software PMOD (version 3.6, PMOD Technologies LLC, Zürich). Regions of interests (ROIs) were drawn and radioactivity concentration within these regions was obtained from the mean values and calculated as percentage of the total injected dose per gram tissue (% ID/g).

[9] = target: T1, hY5R (Homo sapiens, UniProt Q15761); conditions: read-out: Kd of the radioligand (Y5R); cited from earlier work
T1 construct: expressed in transfected cells; host or cells: HEC-1b cells (HEC-1b hY5R)
T1 sequence (Q15761 1-445): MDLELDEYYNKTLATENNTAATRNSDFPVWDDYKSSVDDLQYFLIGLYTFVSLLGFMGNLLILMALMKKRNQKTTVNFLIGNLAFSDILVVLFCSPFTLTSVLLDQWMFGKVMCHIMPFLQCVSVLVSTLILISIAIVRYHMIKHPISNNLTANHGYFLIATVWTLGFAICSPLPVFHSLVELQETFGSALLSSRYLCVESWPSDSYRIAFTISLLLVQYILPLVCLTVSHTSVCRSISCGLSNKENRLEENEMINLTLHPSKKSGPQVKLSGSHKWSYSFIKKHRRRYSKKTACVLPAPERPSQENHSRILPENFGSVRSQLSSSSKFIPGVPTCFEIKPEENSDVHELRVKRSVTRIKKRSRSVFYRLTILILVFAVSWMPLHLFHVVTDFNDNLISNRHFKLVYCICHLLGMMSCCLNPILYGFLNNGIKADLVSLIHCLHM

## NC(N)=NCCC[C@@H](NC(=O)C(c1ccccc1)c1ccccc1)C(=O)NCc1ccc(O)cc1 [BIBP3226]
[1]
  Ki: 1.3 nM

## N/C(=N/C(=O)NCc1cn(CCOCC[18F])nn1)NCCC[C@@H](NC(=O)C(c1ccccc1)c1ccccc1)C(=O)NCc1ccc(O)cc1 [[^18F]12, (2R)‐5‐{[(1Z)‐Amino({[({1‐[2‐(2‐[^18F]fluoroethoxy)ethyl]‐1H‐1,2,3‐triazol‐4‐yl}methyl)carbamoyl]-imino})methyl]amino}‐2‐(2,2‐diphenylacetamido)‐N‐[(4‐hydroxyphenyl)methyl]pentanamide]
[2]
  fraction unbound at 10 min: 0.38
[3]
  kidney uptake: about three times higher
[4]
  logD: 1.74 ± 0.07
[5]
  Stability over 3 h in human serum: >99%
[6]; mouse
  radiometabolites in the blood: > 90%
[6]; mouse blood samples taken early after radiotracer injection
  stability in the blood in vivo (in words): underwent rapid degradation in the blood
[6]; mouse, 5 min p.i.
  intact radioligand in blood samples: 10%
[7]
  specific binding to MCF-7-Y1 tumour slices (autoradiography): marked specific binding; also recorded: highest specific binding to Y1R-positive cells and to tumour slices
[8]
  tumour visualisation / specific tumour accumulation in PET: displaceable and thus specific Y1R-mediated tumour acculuation in vivo; also recorded: enhanced and specific tumour uptake; also recorded: highest specific binding to the Y1R-positive tumour in vivo

## [^3H]propionyl-pNPY: tritiated radioligand used for competition binding at hY2R and hY5R
[9]
  Kd: 4.8 nM
